# Test results reported in patent publication US9834550B2, “Pyridopyrimidinone compounds for modulating the catalytic activity of histone lysine demethylases (KDMs)” (Dong-A Socio Holdings Co., Ltd., priority 2014, dated 2017).
# Biological target: T1, Recombinant human JARID1B/KDM5B (Homo sapiens, UniProt Q9UGL1)
# T1 construct: purchased Active Motif 31432; host or cells: Sf9 insect cells
# Experiment: LANCE Ultra TR-FRET demethylase assay with FLAG-tagged JARID1B
# Format: biochemical
# Details: 100 nM compound; 500 nM biotinylated H3K4me3 peptide substrate
# Source text: FLAG-tagged JARID1B (also known as KDM5B) protein was screened against more than 170 compounds. For this compound screening, LANCE Ultra time-resolved fluorescence resonance energy transfer (TR-FRET) assay was employed using an europoium (Eu)-labeled antibody that can specifically recognize mono- or dimethylated peptides (H3K4me2/1) and ULight-streptavidin (ULight-SA), a small molecule fluorescent dye. When irradiated at 340 nm, the energy from the Eu donor is transferred to the ULight acceptor dye which, in turn, emits light primarily at 665 nm. The ratio between the intensity of primary emission at 665 nm and that of secondary emission at 590 nm was used to quantify the level of lysine methylation. As JARID1B removes more methyl moieties from tri-methylated substrate peptides (H3K4me3), the ratio increases until the enzyme reaction is terminated. In case, therefore, the compounds disrupt the enzymatic activity completely, the ratio becomes equal to a background value.
# Recombinant human JARID1B/KDM5B (accession number NP_006609) of molecular weight 179.9 KDa was expressed in Sf9 insect cells and contains an N-terminal FLAG tag. The enzyme was obtained from Active Motif (Catalog No. 31432). The tri-methylated histone substrate peptide of purity greater than 95% was a synthetic peptide in which the first 21 amino acids correspond to the human histone H3 sequence with three extra amino acids and a biotin motif (GGK-biotin) linked to the C-terminus [sequence: ART-K (Me3)-QTARKSTGGKAPRKQLA-GGK-biotin-OH], (AnaSpec, Fremont, Calif. Catalog. No. ANA-1413). The reference inhibitory compound tranylcypromine (or trans-2-phenylcyclopropylamine hydrochloride, also known as, 2-PCPA) was purchased from Sigma (St. Louis, Mo. Cat. no. P8511). ULight-labeled streptavidin (ULight-SA, Catalog no. TRF0102), Eu-W1024-labeled anti-methyl-Histone H3 Lysine 4 (H3K4me1-2) Antibody (Catalog no. TRF0402), and LANCE detection buffer 10× (Catalog no. CR97-100) were obtained from PerkinElmer (Montreal, Quebec, Canada). The TR-FRET experiments were carried out in white, low-volume 384-wellplates purchased from PerkinElmer (ProxiPlate-384 Plus, Catalog no. 6008280).
# The TR-FRET signal was measured in the presence both of the bio-H3K4me3 peptide and FLAG-JARID1B by detecting any H3K4me2/1 peptide produced in the assay system. Assays using only the bio-H3K4me2 peptide were served as a positive control. Robust enzymatic progressions were observed by using JARID1B at concentrations ranging from 10 to 30 nM. In a typical TR-FRET experiment, JARID1B was pre-incubated with or without 20 uM, 1 uM, or 0.1 uM of test-compounds (containing 1% DMSO final) for […]. The enzymatic reactions were initiated by the addition of 500 nM biotinylated H3K4me3 peptide substrate plus 500 uM of 2-OG, 25 uM Fe(II) and 2 mM ascorbate. The reaction buffer also contained 50 mM Hepes (pH7.5), 0.01% (v/v) Tween 20, and 50 mM NaCl. The reaction mixture was incubated for […] at room temperature before reading on an EnVision plate reader (PerkinElmer, Waltham, Mass.).
# T1 sequence (Q9UGL1 whole entry): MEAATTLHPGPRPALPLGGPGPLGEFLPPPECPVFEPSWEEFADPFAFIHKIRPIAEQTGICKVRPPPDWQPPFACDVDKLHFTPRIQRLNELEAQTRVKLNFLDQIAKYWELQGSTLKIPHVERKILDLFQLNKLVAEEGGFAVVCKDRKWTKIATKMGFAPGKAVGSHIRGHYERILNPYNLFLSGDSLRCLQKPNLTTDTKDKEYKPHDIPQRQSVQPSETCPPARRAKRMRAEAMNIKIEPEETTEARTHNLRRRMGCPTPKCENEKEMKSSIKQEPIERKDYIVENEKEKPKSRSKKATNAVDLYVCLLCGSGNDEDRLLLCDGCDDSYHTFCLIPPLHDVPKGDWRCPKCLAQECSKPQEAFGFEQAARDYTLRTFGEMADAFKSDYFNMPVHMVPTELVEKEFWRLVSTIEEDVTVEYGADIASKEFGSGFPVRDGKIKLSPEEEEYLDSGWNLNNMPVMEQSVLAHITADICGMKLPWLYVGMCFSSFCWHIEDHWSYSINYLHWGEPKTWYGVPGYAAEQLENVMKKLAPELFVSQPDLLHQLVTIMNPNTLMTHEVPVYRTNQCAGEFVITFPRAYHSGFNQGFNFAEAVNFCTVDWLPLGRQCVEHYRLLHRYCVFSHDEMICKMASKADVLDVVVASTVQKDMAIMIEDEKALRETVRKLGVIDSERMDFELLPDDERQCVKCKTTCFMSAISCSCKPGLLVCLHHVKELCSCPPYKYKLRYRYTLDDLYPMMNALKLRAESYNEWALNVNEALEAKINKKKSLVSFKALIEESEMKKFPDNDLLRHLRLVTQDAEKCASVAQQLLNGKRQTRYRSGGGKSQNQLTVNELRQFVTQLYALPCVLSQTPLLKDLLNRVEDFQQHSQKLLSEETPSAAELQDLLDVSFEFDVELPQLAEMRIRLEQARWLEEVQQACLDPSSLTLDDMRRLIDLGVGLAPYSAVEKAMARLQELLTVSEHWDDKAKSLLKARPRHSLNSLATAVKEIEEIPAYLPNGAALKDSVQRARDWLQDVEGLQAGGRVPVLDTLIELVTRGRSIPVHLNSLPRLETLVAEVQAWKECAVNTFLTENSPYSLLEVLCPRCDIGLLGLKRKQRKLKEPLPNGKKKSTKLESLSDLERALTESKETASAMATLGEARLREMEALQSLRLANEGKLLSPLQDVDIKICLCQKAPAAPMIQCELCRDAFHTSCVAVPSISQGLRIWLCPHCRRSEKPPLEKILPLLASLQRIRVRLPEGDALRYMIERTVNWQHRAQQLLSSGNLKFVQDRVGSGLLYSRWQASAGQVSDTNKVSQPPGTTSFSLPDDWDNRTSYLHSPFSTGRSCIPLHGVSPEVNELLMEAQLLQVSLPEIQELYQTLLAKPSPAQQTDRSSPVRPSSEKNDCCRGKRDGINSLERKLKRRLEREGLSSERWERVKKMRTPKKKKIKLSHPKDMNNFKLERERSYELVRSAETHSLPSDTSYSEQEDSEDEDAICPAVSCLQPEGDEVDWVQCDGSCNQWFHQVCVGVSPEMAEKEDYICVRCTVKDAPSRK
row,inhibition at 0.1 µM,Structure (SMILES)
1,> 50%,"O=C(CNCc1nccc2c(=O)[nH]c(COc3ccc(F)c(Cl)c3)nc12)N[C@H]1CC[C@H](N2CCCC2)O1 (relative stereo) [Example 233, 2-(((2-((3-chloro-4-fluorophenoxy)methyl)-4-oxo-3,4-dihydropyrido[3,4-d]pyrimidin-8-yl)methyl)amino)-N-(trans-5-(pyrrolidin-1-yl)tetrahydrofuran-2-yl)acetamide]"
2,< 20%,"COc1cc(OCc2nc3cnccc3c(=O)[nH]2)cc(OC)c1OC [Example 39, 2-((3,4,5-trimethoxyphenoxy)methyl)pyrido[3,4-d]pyrimidin-4(3H)-one]"
3,< 20%,"O=C(NCCN1CCOCC1)c1cccc(OCc2nc3cnccc3c(=O)[nH]2)c1 [Example 40, N-(2-morpholinoethyl)-3-((4-oxo-3,4-dihydropyrido[3,4-d]pyrimidin-2-yl)methoxy)benzamide]"
4,< 20%,"O=c1[nH]c(COc2cccc(CNCc3ccccc3)c2)nc2cnccc12 [Example 42, 2-((3-((benzylamino)methyl)phenoxy)methyl)pyrido[3,4-d]pyrimidin-4(3H)-one]"
5,20 to 50%,"CCCOC1CCN(Cc2cccc(OCc3nc4cnccc4c(=O)[nH]3)c2)CC1 [Example 43, 2-((3-((4-propoxypiperidin-1-yl)methyl)phenoxy)methyl)pyrido[3,4-d]pyrimidin-4(3H)-one]"
6,< 20%,"O=c1[nH]c(COc2cccc(CNC3CCOCC3)c2)nc2cnccc12 [Example 44, 2-((3-(((tetrahydro-2H-pyran-4-yl)amino)methyl)phenoxy)methyl)pyrido[3,4-d]pyrimidin-4(3H)-one]"
7,< 20%,"O=c1[nH]c(COc2cccc(CNCCN3CCOCC3)c2)nc2cnccc12 [Example 45, 2-((3-(((2-morpholinoethyl)amino)methyl)phenoxy)methyl)pyrido[3,4-d]pyrimidin-4(3H)-one]"
8,20 to 50%,"O=C(NCCC1CCNCC1)c1cc(OCc2nc3cnccc3c(=O)[nH]2)ccc1Cl [Example 46, 2-chloro-5-((4-oxo-3,4-dihydropyrido[3,4-d]pyrimidin-2-yl)methoxy)-N-(2-(piperidin-4-yl)ethyl)benzamide]"
9,< 20%,"O=c1[nH]cnc2c(CNCC3CCCCC3)nccc12 [Example 85, 8-(((cyclohexylmethyl)amino)methyl)pyrido[3,4-d]pyrimidin-4(3H)-one]"
10,< 20%,"CCN(CC)CCCCNCc1nccc2c(=O)[nH]cnc12 [Example 86, 8-(((4-(diethylamino)butyl)amino)methyl)pyrido[3,4-d]pyrimidin-4(3H)-one]"
11,< 20%,"O=C1CCCN1CCCNCc1nccc2c(=O)[nH]cnc12 [Example 88, 8-(((3-(2-oxopyrrolidin-1-yl)propyl)amino)methyl)pyrido[3,4-d]pyrimidin-4(3H)-one]"
12,20 to 50%,"CN1CCC(CNCc2nccc3c(=O)[nH]cnc23)C1 (stereo not drawn) [Example 92, 8-((((1-methylpyrrolidin-3-yl)methyl)amino)methyl)pyrido[3,4-d]pyrimidin-4(3H)-one]"
13,20 to 50%,"O=c1[nH]cnc2c(CNCC3CCNCC3)nccc12 [Example 93, 8-(((piperidin-4-ylmethyl)amino)methyl)pyrido[3,4-d]pyrimidin-4(3H)-one]"
14,< 20%,"CC(NCc1nccc2c(=O)[nH]cnc12)C1CCNCC1 (stereo not drawn) [Example 94, 8-(((1-(piperidin-4-yl)ethyl)amino)methyl)pyrido[3,4-c]pyrimidin-4(3H)-one]"
15,20 to 50%,"CN1CCC(CNCc2nccc3c(=O)[nH]cnc23)CC1 [Example 95, 8-((((1-methylpiperidin-4-yl)methyl)amino)methyl)pyrido[3,4-d]pyrimidin-4(3H)-one]"
16,20 to 50%,"O=c1[nH]cnc2c(CNCC3CCN(Cc4ccccc4)CC3)nccc12 [Example 96, 8-((((1-benzylpiperidin-4-yl)methyl)amino)methyl)pyrido[3,4-d]pyrimidin-4(3H)-one]"
17,20 to 50%,"CN1CCC(N2CCC(CNCc3nccc4c(=O)[nH]cnc34)CC2)CC1 [Example 97, 8-((((1′-methyl-[1,4′-bipiperidin]-4-yl)methyl)amino)methyl)pyrido[3,4-d]pyrimidin-4(3H)-one]"
18,< 20%,"O=c1[nH]cnc2c(CNC[C@@H]3CCCNC3)nccc12 [Example 98, (R)-8-(((piperidin-3-ylmethyl)amino)methyl)pyrido[3,4-d]pyrimidin-4(3H)-one]"
19,20 to 50%,"O=c1[nH]cnc2c(CNC[C@H]3CCCNC3)nccc12 [Example 99, (S)-8-(((piperidin-3-ylmethyl)amino)methyl)pyrido[3,4-d]pyrimidin-4(3H)-one]"
20,> 50%,"CN1CCCC(CNCc2nccc3c(=O)[nH]cnc23)C1 (stereo not drawn) [Example 100, 8-((((1-methylpiperidin-3-yl)methyl)amino)methyl)pyrido[3,4-d]pyrimidin-4(3H)-one]"
21,20 to 50%,"O=c1[nH]cnc2c(CNCC3CCCN(Cc4ccccc4)C3)nccc12 (stereo not drawn) [Example 101, 8-((((1-benzylpiperidin-3-yl)methyl)amino)methyl)pyrido[3,4-d]pyrimidin-4(3H)-one]"
22,> 50%,"O=c1[nH]c(COc2ccccc2Cl)nc2c(CNCC3CCN(Cc4ccccc4)CC3)nccc12 [Example 105, 8-((((1-benzylpiperidin-4-yl)methyl)amino)methyl)-2-((2-chlorophenoxy)methyl)pyrido[3,4-d]pyrimidin-4(3H)-one]"
23,> 50%,"O=c1[nH]c(COc2cccc(Cl)c2)nc2c(CNCC3CCN(Cc4ccccc4)CC3)nccc12 [Example 106, 8-((((1-benzylpiperidin-4-yl)methyl)amino)methyl)-2-((3-chlorophenoxy)methyl)pyrido[3,4-d]pyrimidin-4(3H)-one]"
24,> 50%,"O=c1[nH]c(COc2ccc(Cl)cc2)nc2c(CNCC3CCN(Cc4ccccc4)CC3)nccc12 [Example 107, 8-((((1-benzylpiperidin-4-yl)methyl)amino)methyl)-2-((4-chlorophenoxy)methyl)pyrido[3,4-d]pyrimidin-4(3H)-one]"
25,> 50%,"O=c1[nH]c(COc2ccc(Br)cc2)nc2c(CNCC3CCN(Cc4ccccc4)CC3)nccc12 [Example 108, 8-((((1-benzylpiperidin-4-yl)methyl)amino)methyl)-2-((4-bromophenoxy)methyl)pyrido[3,4-d]pyrimidin-4(3H)-one]"
26,20 to 50%,"O=c1[nH]c(COc2cccnc2)nc2c(CNCC3CCN(Cc4ccccc4)CC3)nccc12 [Example 109, 8-((((1-benzylpiperidin-4-yl)methyl)amino)methyl)-2-((pyridin-3-yloxy)methyl)pyrido[3,4-d]pyrimidin-4(3H)-one]"
27,> 50%,"O=c1[nH]c(COc2ccncc2)nc2c(CNCC3CCN(Cc4ccccc4)CC3)nccc12 [Example 110, 8-((((1-benzylpiperidin-4-yl)methyl)amino)methyl)-2-((pyridin-4-yloxy)methyl)pyrido[3,4-d]pyrimidin-4(3H)-one]"
28,> 50%,"O=c1[nH]c(COc2ccc(Cc3ccccc3)cc2)nc2c(CNCC3CCN(Cc4ccccc4)CC3)nccc12 [Example 111, 2-((4-benzylphenoxy)methyl)-8-((((1-benzylpiperidin-4-yl)methyl)amino)methyl)pyrido[3,4-d]pyrimidin-4(3H)-one]"
29,20 to 50%,"O=c1[nH]c(COc2cc(C(F)(F)F)ccc2Cl)nc2c(CNCC3CCNCC3)nccc12 [Example 112, 2-((2-chloro-5-(trifluoromethyl)phenoxy)methyl)-8-(((piperidin-4-ylmethyl)amino)methyl)pyrido[3,4-d]pyrimidin-4(3H)-one]"
30,20 to 50%,"O=c1[nH]c(COc2cccc(Cl)c2Cl)nc2c(CNCC3CCNCC3)nccc12 [Example 113, 2-((2,3-dichlorophenoxy)methyl)-8-(((piperidin-4-ylmethyl)amino)methyl)pyrido[3,4-d]pyrimidin-4(3H)-one]"
